Test results from patent US20100137381A1, “ACETAMIDE DERIVATIVES AS POTASSIUM CHANNEL MODULATORS” (NeuroSearch A/S, priority 2007, published 2010).
Blank lines part the entries; values can stand above or below the compound they belong to.

Legend:
[1] = molecular target: chloride channel (human erythrocyte chloride conductance); assay: In vitro human erythrocyte chloride conductance; assay type: cell-based; conditions: suspensions of human erythrocytes; calculated from dose-response of membrane Cl-conductance (GCl); read-out: KD-value, chloride conductance block
Excerpt: In this example the chloride channel blocking activity of an acetamide derivative representative of the invention, i.e. Compound 3 (2-(4-Chloro-phenyl)-N-[4′-chloro-3-(1H-tetrazol-5-yl)-biphenyl-4-yl]-acetamide), has been determined.
All dose-response experiments were therefore performed by concomitant measurements of conductive netfluxes of Cl^− (JCl) and membrane potentials (Vm) in suspensions of erythrocytes as described by Bennekou et al. (Bennekou P and Christophersen P: Flux ratio of Valinomycin—Mediated K^+Fluxes across the Human Red Cell Membrane in the presence of the Protronophore CCCP; J. Membrane Biol. 1986 93 221-227).
The membrane Cl-conductances (GCl) were calculated according to Hodgkin et al. (Hodgkin A L and Huxley A F: The components of membrane conductance in the giant axon of Loligo; J. Physiol. Lond. 1952 116 449-472) using the following equation: […]
where F is the Faraday constant and ECl is the Nernst potential for the Cl-ion.

[2] = molecular target: T1, BK channels heterologously expressed in Xenopus laevis oocytes (Homo sapiens, UniProt Q12791); assay: BK channel activation, two-electrode voltage clamp in Xenopus laevis oocytes; assay type: cell-based; conditions: depolarising step to +20 mV
T1 construct: expressed in transfected cells; host or cells: Xenopus laevis oocytes
Experimental: In this example the BK channel opening activity of two acetamide derivatives of to the invention, i.e. 2-(3,5-difluoro-phenyl)-N-[3-(5-oxo-4,5-dihydro-[1,2,4]oxadiazol-3-yl)-4′-trifluoromethyl-biphenyl-4-yl]-acetamide (Compound 7), and 2-(3,5-bis-trifluoromethyl-phenyl)-N-[4-bromo-2-(1H-tetrazol-5-yl)-phenyl]-acetamide (Compound 2) herein designated Compound A and Compound B, respectively, is determined using BK channels heterologously expressed in Xenopus laevis oocytes.
The electrical current through the BK channel is measured by conventional two-electrode voltage clamp. BK current is activated by repeated step protocols. In brief, this protocol goes from a resting membrane potential of −40 mV lasting for 5 s to a depolarised step to +20 mV lasting for 1 s. The protocol was repeated continuously.
Having reached a stable current level, Compound A (3 μM) and Compound B (10 μM), respectively, was added. A marked increase in the current activated by depolarisation could be observed. The BK current activity returned to baseline after approximately 30-80 seconds of wash. In summary BK current was increased by 367±92% in the presence of 3 μM of Compound A (n=3, SD value), and 327±88% in the presence of 10 μM of Compound B.

T1 sequence (Q12791 whole entry): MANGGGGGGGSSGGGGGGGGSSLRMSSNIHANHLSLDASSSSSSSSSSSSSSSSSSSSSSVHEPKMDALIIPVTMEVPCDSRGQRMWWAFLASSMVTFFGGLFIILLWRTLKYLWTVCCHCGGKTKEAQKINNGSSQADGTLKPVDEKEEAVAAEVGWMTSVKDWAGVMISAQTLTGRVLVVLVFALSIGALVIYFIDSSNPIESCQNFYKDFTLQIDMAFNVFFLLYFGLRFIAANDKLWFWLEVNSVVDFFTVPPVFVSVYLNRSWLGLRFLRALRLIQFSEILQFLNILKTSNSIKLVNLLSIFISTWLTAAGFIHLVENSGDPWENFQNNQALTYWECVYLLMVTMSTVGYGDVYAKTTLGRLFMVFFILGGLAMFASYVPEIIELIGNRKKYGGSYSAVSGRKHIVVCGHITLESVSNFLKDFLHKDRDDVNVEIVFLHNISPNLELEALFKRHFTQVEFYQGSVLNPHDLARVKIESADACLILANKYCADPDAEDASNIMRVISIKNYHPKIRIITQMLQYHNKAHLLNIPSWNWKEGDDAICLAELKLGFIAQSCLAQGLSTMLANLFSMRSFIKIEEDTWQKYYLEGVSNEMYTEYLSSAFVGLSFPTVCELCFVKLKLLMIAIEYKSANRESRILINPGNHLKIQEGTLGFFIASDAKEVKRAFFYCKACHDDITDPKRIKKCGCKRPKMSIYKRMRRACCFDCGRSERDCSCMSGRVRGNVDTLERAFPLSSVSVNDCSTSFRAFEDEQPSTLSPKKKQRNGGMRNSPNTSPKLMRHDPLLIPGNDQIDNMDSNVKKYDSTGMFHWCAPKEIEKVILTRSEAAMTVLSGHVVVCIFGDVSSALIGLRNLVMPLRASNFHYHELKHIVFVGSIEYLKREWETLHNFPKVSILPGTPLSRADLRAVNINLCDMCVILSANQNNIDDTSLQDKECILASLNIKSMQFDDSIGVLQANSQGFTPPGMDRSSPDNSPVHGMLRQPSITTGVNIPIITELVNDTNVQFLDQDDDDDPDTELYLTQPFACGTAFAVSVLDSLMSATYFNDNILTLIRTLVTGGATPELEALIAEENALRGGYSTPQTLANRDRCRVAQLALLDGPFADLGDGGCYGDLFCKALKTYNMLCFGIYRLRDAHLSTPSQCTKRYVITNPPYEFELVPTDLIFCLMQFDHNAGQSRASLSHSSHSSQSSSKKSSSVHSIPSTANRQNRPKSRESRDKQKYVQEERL

Kd [1]: 90 nM
SMILES: O=C(Cc1ccc(Cl)cc1)Nc1ccc(-c2ccc(Cl)cc2)cc1-c1nnn[nH]1 [Compound 3, 2-(4-Chloro-phenyl)-N-[4′-chloro-3-(1H-tetrazol-5-yl)-biphenyl-4-yl]-acetamide]

BK current increase ([2]; 3 μM compound, n=3, SD value): 367±92%
SMILES: O=C(Cc1cc(F)cc(F)c1)Nc1ccc(-c2ccc(C(F)(F)F)cc2)cc1-c1noc(=O)[nH]1 [Compound A, 2-(3,5-difluoro-phenyl)-N-[3-(5-oxo-4,5-dihydro-[1,2,4]oxadiazol-3-yl)-4′-trifluoromethyl-biphenyl-4-yl]-acetamide]

BK current increase ([2]; 10 μM compound): 327±88%
SMILES: O=C(Cc1cc(C(F)(F)F)cc(C(F)(F)F)c1)Nc1ccc(Br)cc1-c1nnn[nH]1 [Compound B, 2-(3,5-Bis-trifluoromethyl-phenyl)-N-[4-bromo-2-(1H-tetrazol-5-yl)-phenyl]-acetamide]
